Reference: ChEMBL document CHEMBL1146524, “Isolation of homodolastatin 16, a new cyclic depsipeptide from a Kenyan collection of Lyngbya majuscula” (J Nat Prod, 2003)
Converted amounts (≈) assume the structure as drawn. Starred links: 1 amine or outer side, 2 acyl side, 3 side chain; linkers in the order of their positions; H or OH if unused. Non-standard residues stand in square brackets, D forms with d. Residues, ends and D or L forms follow the SMILES beside them. X1 = CC(Cc1ccccc1)C(N[*:1])C(=O)[*:2]; X2 = CC(C)C(N[*:1])C(C)C(=O)[*:2]; dNMeV = CN[C@@H](C(=O)O)C(C)C; dHiv = CC(C)[C@@H](O)C(=O)O; Lac = C[C@H](O)C(=O)O

How the values were obtained:
[1] = Cytotoxicity against human WHCO1 cells after 48 hrs by MTT method; type: functional, cell-based; conditions: WHCO1, 48 h
[2] = Cytotoxicity against human WHCO6 cells after 48 hrs by MTT method; type: functional, cell-based; conditions: WHCO6, 48 h
ME-180 = assay: Cytotoxicity against human ME180 cells after 48 hrs by MTT method; type: functional, cell-based; conditions: ME-180, 48 h
KM-20L2 = assay: Cytotoxicity against human KM20L2 cells after 48 hrs by MTT method; type: functional; conditions: KM-20L2, 48 h
SF-295 = assay: Cytotoxicity against human SF295 cells after 48 hrs by MTT method; type: functional; conditions: SF-295, 48 h
NCI-H460 = assay: Cytotoxicity against human NCI-H460 cells after 48 hrs by MTT method; type: functional; conditions: NCI-H460, 48 h
SK-MEL-5 = assay: Cytotoxicity against human SK-MEL-5 cells after 48 hrs by MTT method; type: functional; conditions: SK-MEL-5, 48 h

Compound	IC50 [1]	IC50 [2]	IC50 (ME-180)	GI50 (KM-20L2)	GI50 (SF-295)	GI50 (NCI-H460)	GI50 (SK-MEL-5)
CC[C@H](C)[C@H]1C(=O)N2CCC[C@H]2C(=O)NC(C(C)Cc2ccccc2)C(=O)N2CCC[C@H]2C(=O)NC(C(C)C)C(C)C(=O)OC(C)C(=O)N2CCC[C@H]2C(=O)O[C@H](C(C)C)C(=O)N1C (some centres not stated) [HOMODOLASTATIN 16]	4300 ng/mL (≈ 4810 nM)	10100 ng/mL (≈ 11300 nM)	8300 ng/mL (≈ 9290 nM)				
CC(C)C1NC(=O)[C@@H]2CCCN2C(=O)C(C(C)Cc2ccccc2)NC(=O)[C@@H]2CCCN2C(=O)[C@@H](C(C)C)N(C)C(=O)[C@@H](C(C)C)OC(=O)[C@@H]2CCCN2C(=O)[C@H](C)OC(=O)C1C (some centres not stated) [DOLASTATIN 16] (cyclo([Lac]P[dHiv][dNMeV]P[X1]P[X2]))				1.2 ng/mL (≈ 1.37 nM)	5.2 ng/mL (≈ 5.92 nM)	0.96 ng/mL (≈ 1.09 nM)	3.3 ng/mL (≈ 3.75 nM)
